Calls of active or inactive are those of the source.
Key:
Assay type in all cases: functional, organism-based
[1] = test system: Mycobacterium tuberculosis; experiment: Antimicrobial activity against streptomycin-resistant Mycobacterium tuberculosis ATCC 35820 after 2 to 3 weeks
[2] = test system: Mycobacterium tuberculosis; experiment: Antimicrobial activity against isoniazid-resistant Mycobacterium tuberculosis ATCC 35822 after 2 to 3 weeks
[3] = test system: Mycobacterium tuberculosis; experiment: Antimicrobial activity against rifampicin-resistant Mycobacterium tuberculosis 19000 after 2 to 3 weeks
[4] = test system: Mycobacterium tuberculosis; experiment: Antimicrobial activity against ethionamide-resistant Mycobacterium tuberculosis 1700 after 2 to 3 weeks

Measured: Activity

CC(C)OCCOc1ccc(-c2cnc(COc3ncccc3C(N)=O)nc2)c(Cl)c1
active: all assays above

COCCOc1ccc(-c2ccc(COc3ncccc3C(N)=O)nc2)c(C)c1
active: all assays above

NC(=O)c1cccnc1OCc1ncc(-c2ccc(OCCCF)cc2Cl)cn1
active: all assays above

— ChEMBL document CHEMBL3286119, “Biarylmethoxy Nicotinamides As Novel and Specific Inhibitors of Mycobacterium tuberculosis” (ACS Med Chem Lett, 2014)
